Source: patent US20250269072A1, “PROCESSES FOR PREPARING RADIOLABELLED CONJUGATES” (CENTENARY INSTITUTE OF CANCER MEDICINE AND CELL BIOLOGY, priority 2021, published 2025)
“And” between values parts separate entries of the source, which are not always exact repeats. Equal values may be shown once. “Also recorded” adds a separate entry of the source.

Experiments:
Format in all cases: in vivo
Human studies: safety = settings: patients 1-4, 200-207 MBq
Description: patient with squamous cell carcinoma of the oesophagus • 2. Person with metastatic ovarian carcinoma • 3. Person with metastatic cutaneous squamous cell carcinoma • 4. Person with invasive ductal breast carcinoma.

[1] = In-human study of ^68Ga-CDI: radiation dosimetry (OLINDA/EXM 1.1); settings: 5 participants
Description: Activity concentrations derived above were entered into OLINDA/EXM 1.1 and bi-exponential curves fitted using the curve fitting tools within OLINDA/EXM 1.1 (Stabin et al., J Nucl Med. 2005; 46:1023-1027).

tumor deposits = assay: In-human study of ^68Ga-CDI: tumor uptake
Experimental: (§1) Eight serial PET scans were then performed from skull vertex to the proximal femora. The first PET scan commenced immediately following administration of ^68Ga-CDI, with subsequent scans commencing at approximately 7, 17, 29, 47, 64, 120 and 180 minutes after administration (+/−5 minutes). All scans were performed on a Phillips ingenuity TF 128 PET CT scanner (Philips Medical Systems, Cleveland) with acquisition times increasing for each subsequent scan ranging from 30 s/bed (immediately after administration) to 240 s/bed (at 180 minutes after administration) to compensate for excretion and decay. All PET scans were reconstructed using CT attenuation correction with a time of flight, list-mode, blob-based, ordered subsets maximum likelihood expectation maximization algorithm (BLOB-OS-TF) (reconstructed voxel size 4×4×4 mm).
(§2) For analysis of uptake and biodistribution in normal tissues and organs, spherical volumes of interest (VOIs) were drawn on the Digital Imaging and Communications in Medicine (DICOM) ^68Ga-CDI-PET emission data on a workstation (IntelliSpace Portal, V5.0.2.60000, Philips Medical System, Best, The Netherlands) by an experienced nuclear medicine physician over clearly tumor-free regions of organs. VOI diameter varied depending on organ size but where possible was at least 10 mm. Spherical VOIs were also drawn over all tumor deposits greater than 10 mm in diameter. These VOIs were replicated across all time points and the mean, maximum and standard deviation of the activity concentration (Bq/mL) of all VOIs at each time point was recorded. Activity concentration was used to calculate the % injected activity (% IA) for organs and tissues based on the masses of source organs for standard phantom male and female models (Stabin & Siegel, Health Phys. 2003; 85:294-310). Mean, maximum and standard deviation of the SUV for each VOI was also a calculated from the activity concentration using the slope intercept stored with the DICOM CDI PET emission data.

[2] = In-human study of ^68Ga-CDI: biodistribution (PET CT, blood, urine)
Experimental: Subjects were encouraged to be well orally hydrated prior to ^68Ga-CDI administration, otherwise there was no preparation required. Two intravenous cannulas were placed (one for administration of ^68Ga-CDI and the other blood sampling during the study). Immediately prior to ^68Ga-CDI administration clinical assessment of participants was performed, vital signs (blood pressure, heart rate, respiratory rate, arterial oxygen saturation and temperature) measured and a 12-lead electrocardiogram (ECG) obtained and QTc calculated according to Bazett's formula to confirm eligibility. ^68Ga-CDI was administered as an intravenous bolus.
as §1
Immediately prior to the scan commencing at approximately 47 minutes post administration a low-dose, non-contrast CT of the same region was performed for attenuation correction and localisation (of the first six scans during which time the patient had not moved) (44-120 mAs, 120-140 kV adjusted for body weight and body mass index, iDose 3 iterative reconstruction, reconstructed voxel size 1.17×1.17×3 mm). Ultra-low dose non-contrast CT (25 mAs, 100 kV, filtered back projection reconstruction, reconstructed voxel size 1.17×1.17×3 mm) was performed for attenuation correction immediately prior to the 120 minute and 180 minute PET scans.
During and immediately following completion of the scanning protocol, subjects were clinically assessed for adverse reactions and vital signs measured. Blood was collected for venous radioactivity measurements at 1, 2 and 3 hours following ^68Ga-CDI administration. Subjects were asked to void between 1.5 to 2 h and 2.75 to 3 h after ^68Ga-CDI administration, urine collected, the volume measured, and an aliquot counted in a gamma counter to determine activity concentration. Following completion of the scanning protocol, ECG was recorded, and blood collected for biochemical and haematological assessment.
as §2

O=C(O)CNC(=O)[C@H](CSCC(=O)Nc1ccc([As](O)O)cc1)NC(=O)CC[C@H](NC(=O)CCC1C(=O)[O][68Ga]2[O]C(=O)CN3CCN(CCN1CC3)CC(=O)[O]2)C(=O)O (stereo partly shown) [^68Ga-NODAGA-GSAO]
adverse events (Human studies: safety): no related or unrelated serious adverse events or adverse events; also recorded: safe, well-tolerated and without adverse effects | Estimated radiation dose, Average ([1]; Adrenals): 1.28E−02 mSv/MBq | Estimated radiation dose, Average ([1]; Brain): 1.75E−03 mSv/MBq | Estimated radiation dose, Average ([1]; Breasts): 7.03E−03 mSv/MBq | Estimated radiation dose, Average ([1]; Effective dose, listed as 68Ga-CDI): 2.17E-02±4.61E-03 mSv/MBq and 2.17E−02 mSv/MBq | Estimated radiation dose, Average ([1]; Gallbladder Wall): 8.16E−03 mSv/MBq | Estimated radiation dose, Average ([1]; Heart Wall): 1.02E−02 mSv/MBq | Estimated radiation dose, Average ([1]; Kidneys, listed as 68Ga-CDI): 4.89E-02±3.55E-03 mSv/MBq and 4.89E−02 mSv/MBq | Estimated radiation dose, Average ([1]; LLI Wall): 1.91E−02 mSv/MBq | Estimated radiation dose, Average ([1]; Liver): 1.61E−02 mSv/MBq | Estimated radiation dose, Average ([1]; Lungs): 7.75E−03 mSv/MBq | Estimated radiation dose, Average ([1]; Muscle): 8.96E−03 mSv/MBq | Estimated radiation dose, Average ([1]; Osteogenic Cells): 1.13E−02 mSv/MBq | Estimated radiation dose, Average ([1]; Ovaries): 1.20E−02 mSv/MBq | Estimated radiation dose, Average ([1]; Pancreas): 1.52E−02 mSv/MBq | Estimated radiation dose, Average ([1]; Red Marrow): 8.89E−03 mSv/MBq | Estimated radiation dose, Average ([1]; Skin): 5.39E−03 mSv/MBq | Estimated radiation dose, Average ([1]; Small Intestine): 1.45E−02 mSv/MBq | Estimated radiation dose, Average ([1]; Spleen): 1.59E−02 mSv/MBq | Estimated radiation dose, Average ([1]; Stomach Wall): 1.00E−02 mSv/MBq | Estimated radiation dose, Average ([1]; Testes): 1.67E−02 mSv/MBq | Estimated radiation dose, Average ([1]; Thymus): 6.32E−03 mSv/MBq | Estimated radiation dose, Average ([1]; Thyroid): 1.26E−02 mSv/MBq | Estimated radiation dose, Average ([1]; Total Body): 9.66E−03 mSv/MBq | Estimated radiation dose, Average ([1]; ULI Wall): 1.23E−02 mSv/MBq | Estimated radiation dose, Average ([1]; Urinary Bladder Wall, listed as 68Ga-CDI): 2.79E-01±1.11E-01 mSv/MBq and 2.79E−01 mSv/MBq | Estimated radiation dose, Average ([1]; Uterus): 2.63E−02 mSv/MBq | tumor uptake SUVmax (tumor deposits; breast carcinoma): 2.5 | tumor uptake SUVmax (tumor deposits; metastatic colorectal carcinoma): 4.4 | tumor uptake SUVmax (tumor deposits; metastatic cutaneous squamous cell carcinoma): 6.5 | tumor uptake SUVmax (tumor deposits; metastatic ovarian carcinoma): 2.7 | tumor uptake SUVmax (tumor deposits; squamous cell carcinoma of the oesophagus): 5.7 | tumor retention (tumor deposits; tumor in 4 of the 5 patients): prolonged retention throughout the duration of imaging | activity remaining in the blood pool, average ([2]; 1 hour): 12.2 % IA | average SUV kidneys ([2]; 1 hour post injection): 5.3 SUV | activity remaining in the blood pool, average ([2]; 2 hours): 8.8 % IA | average SUV kidneys ([2]; 2 hours post injection): 4.9 SUV | activity remaining in the blood pool, average ([2]; 3 hours): 7.7 % IA | average SUV kidneys ([2]; 3 hours post injection): 4.0 SUV | total activity excreted in urine ([2]; by 90 minutes): 39±18%
